Assay results published in the supplement of paper PMC10307832.

Experiments:
Assay in all cases: relative viability (nuclei count vs DMSO), 5 days (fraction); higher = more cells survive
[1] = tested on: A-427
In short: (§1)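 Five library-drug doses in √10 steps were combined with a fixed anchor-drug dose, or a single drug was given alone, by pin tool to lung cancer cell lines in 1536-well plates the day after seeding. Nuclei were stained and counted after 5 days. Relative viability is the nuclei count in treated wells over that in vehicle wells, taken as the median of duplicate plates.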

[2] = tested on: ABC-1
In short: as §1

[3] = tested on: COR-L23
In short: as §1

[4] = tested on: EMC-BAC-2
In short: as §1

[5] = tested on: HARA
In short: as §1

[6] = tested on: HOP-62
In short: as §1

[7] = tested on: LK-2
In short: as §1

[8] = tested on: LXF-289
In short: as §1

[9] = tested on: NCI-H1792
In short: as §1

[10] = tested on: NCI-H1793
In short: as §1

[11] = tested on: NCI-H1944
In short: as §1

[12] = tested on: NCI-H1993
In short: as §1

[13] = tested on: NCI-H2009
In short: as §1

[14] = tested on: NCI-H2170
In short: as §1

[15] = tested on: NCI-H2228
In short: as §1

[16] = tested on: NCI-H3122
In short: as §1

[17] = tested on: NCI-H596
In short: as §1

[18] = tested on: NCI-H727
In short: as §1

[19] = tested on: PC-3 [JPC-3]
In short: as §1

[20] = tested on: SK-LU-1
In short: as §1

[21] = tested on: SK-MES-1
In short: as §1

[22] = tested on: SW 1573
In short: as §1

[23] = tested on: SW 900
In short: as §1

## NC(=O)Nc1cc(-c2cccc(F)c2)sc1C(=O)N[C@H]1CCCNC1 [AZD7762] + Cc1nc(Nc2ncc(C(=O)Nc3c(C)cccc3Cl)s2)cc(N2CCN(CCO)CC2)n1 [Dasatinib] (partner 0.075 µM)
[1]; first compound 0.01 µM
  relative viability: 0.83
[1]; first compound 0.03162 µM
  relative viability: 0.669
[1]; first compound 0.1 µM
  relative viability: 0.812
[1]; first compound 0.3162 µM
  relative viability: 0.663
[1]; first compound 1 µM
  relative viability: 0.218
[2]; first compound 0.01 µM
  relative viability: 0.618
[2]; first compound 0.03162 µM
  relative viability: 0.586
[2]; first compound 0.1 µM
  relative viability: 0.473
[2]; first compound 0.3162 µM
  relative viability: 0.413
[2]; first compound 1 µM
  relative viability: 0.273
[3]; first compound 0.01 µM
  relative viability: 0.477
[3]; first compound 0.03162 µM
  relative viability: 0.528
[3]; first compound 0.1 µM
  relative viability: 0.515
[3]; first compound 0.3162 µM
  relative viability: 0.313
[3]; first compound 1 µM
  relative viability: 0.0945
[4]; first compound 0.01 µM
  relative viability: 0.373
[4]; first compound 0.03162 µM
  relative viability: 0.37
[4]; first compound 0.1 µM
  relative viability: 0.359
[4]; first compound 0.3162 µM
  relative viability: 0.346
[4]; first compound 1 µM
  relative viability: 0.322
[5]; first compound 0.01 µM
  relative viability: 0.306
[5]; first compound 0.03162 µM
  relative viability: 0.304
[5]; first compound 0.1 µM
  relative viability: 0.275
[5]; first compound 0.3162 µM
  relative viability: 0.286
[5]; first compound 1 µM
  relative viability: 0.164
[6]; first compound 0.01 µM
  relative viability: 0.727
[6]; first compound 0.03162 µM
  relative viability: 0.72
[6]; first compound 0.1 µM
  relative viability: 0.682
[6]; first compound 0.3162 µM
  relative viability: 0.623
[6]; first compound 1 µM
  relative viability: 0.341
[7]; first compound 0.01 µM
  relative viability: 0.269
[7]; first compound 0.03162 µM
  relative viability: 0.266
[7]; first compound 0.1 µM
  relative viability: 0.283
[7]; first compound 0.3162 µM
  relative viability: 0.27
[7]; first compound 1 µM
  relative viability: 0.298
[8]; first compound 0.01 µM
  relative viability: 0.225
[8]; first compound 0.03162 µM
  relative viability: 0.245
[8]; first compound 0.1 µM
  relative viability: 0.219
[8]; first compound 0.3162 µM
  relative viability: 0.187
[8]; first compound 1 µM
  relative viability: 0.211
[9]; first compound 0.01 µM
  relative viability: 0.814
[9]; first compound 0.03162 µM
  relative viability: 0.861
[9]; first compound 0.1 µM
  relative viability: 0.753
[9]; first compound 0.3162 µM
  relative viability: 0.891
[9]; first compound 1 µM
  relative viability: 0.873
[10]; first compound 0.01 µM
  relative viability: 0.408
[10]; first compound 0.03162 µM
  relative viability: 0.388
[10]; first compound 0.1 µM
  relative viability: 0.426
[10]; first compound 0.3162 µM
  relative viability: 0.482
[10]; first compound 1 µM
  relative viability: 0.276
[11]; first compound 0.01 µM
  relative viability: 0.231
[11]; first compound 0.03162 µM
  relative viability: 0.238
[11]; first compound 0.1 µM
  relative viability: 0.252
[11]; first compound 0.3162 µM
  relative viability: 0.256
[11]; first compound 1 µM
  relative viability: 0.232
[12]; first compound 0.01 µM
  relative viability: 0.629
[12]; first compound 0.03162 µM
  relative viability: 0.599
[12]; first compound 0.1 µM
  relative viability: 0.481
[12]; first compound 0.3162 µM
  relative viability: 0.574
[12]; first compound 1 µM
  relative viability: 0.588
[13]; first compound 0.01 µM
  relative viability: 0.334
[13]; first compound 0.03162 µM
  relative viability: 0.287
[13]; first compound 0.1 µM
  relative viability: 0.342
[13]; first compound 0.3162 µM
  relative viability: 0.282
[13]; first compound 1 µM
  relative viability: 0.181
[14]; first compound 0.01 µM
  relative viability: 0.602
[14]; first compound 0.03162 µM
  relative viability: 0.584
[14]; first compound 0.1 µM
  relative viability: 0.507
[14]; first compound 0.3162 µM
  relative viability: 0.529
[14]; first compound 1 µM
  relative viability: 0.401
[15]; first compound 0.01 µM
  relative viability: 0.67
[15]; first compound 0.03162 µM
  relative viability: 0.606
[15]; first compound 0.1 µM
  relative viability: 0.373
[15]; first compound 0.3162 µM
  relative viability: 0.204
[15]; first compound 1 µM
  relative viability: 0.125
[16]; first compound 0.01 µM
  relative viability: 0.893
[16]; first compound 0.03162 µM
  relative viability: 0.739
[16]; first compound 0.1 µM
  relative viability: 0.823
[16]; first compound 0.3162 µM
  relative viability: 0.544
[16]; first compound 1 µM
  relative viability: 0.625
[17]; first compound 0.01 µM
  relative viability: 0.66
[17]; first compound 0.03162 µM
  relative viability: 0.632
[17]; first compound 0.1 µM
  relative viability: 0.715
[17]; first compound 0.3162 µM
  relative viability: 0.611
[17]; first compound 1 µM
  relative viability: 0.481
[18]; first compound 0.01 µM
  relative viability: 0.374
[18]; first compound 0.03162 µM
  relative viability: 0.422
[18]; first compound 0.1 µM
  relative viability: 0.35
[18]; first compound 0.3162 µM
  relative viability: 0.284
[18]; first compound 1 µM
  relative viability: 0.191
[19]; first compound 0.01 µM
  relative viability: 1.05
[19]; first compound 0.03162 µM
  relative viability: 0.961
[19]; first compound 0.1 µM
  relative viability: 0.969
[19]; first compound 0.3162 µM
  relative viability: 1.01
[19]; first compound 1 µM
  relative viability: 0.716
[20]; first compound 0.01 µM
  relative viability: 0.183
[20]; first compound 0.03162 µM
  relative viability: 0.158
[20]; first compound 0.1 µM
  relative viability: 0.108
[20]; first compound 0.3162 µM
  relative viability: 0.126
[20]; first compound 1 µM
  relative viability: 0.128
[21]; first compound 0.01 µM
  relative viability: 0.413
[21]; first compound 0.03162 µM
  relative viability: 0.468
[21]; first compound 0.1 µM
  relative viability: 0.302
[21]; first compound 0.3162 µM
  relative viability: 0.131
[21]; first compound 1 µM
  relative viability: 0.117
[22]; first compound 0.01 µM
  relative viability: 0.576
[22]; first compound 0.03162 µM
  relative viability: 0.561
[22]; first compound 0.1 µM
  relative viability: 0.45
[22]; first compound 0.3162 µM
  relative viability: 0.247
[22]; first compound 1 µM
  relative viability: 0.121
[23]; first compound 0.01 µM
  relative viability: 0.421
[23]; first compound 0.03162 µM
  relative viability: 0.776
[23]; first compound 0.1 µM
  relative viability: 0.625
[23]; first compound 0.3162 µM
  relative viability: 0.674
[23]; first compound 1 µM
  relative viability: 0.165
